Measured values reported in paper PMC7795518, “Insights into the Interaction of LVV-Hemorphin-7 with Angiotensin II Type 1 Receptor” (International Journal of Molecular Sciences, 2020).

Assays:
dopamine 1 receptor = details: allosteric modulator binding preferentially to ICL2; cited from earlier work
Description: Positive allosteric binding sites of GPCRs have been identified in the past. However, recent studies have […] the potential of positive allosteric modulators in multiple GPCRs using in vitro and in silico approaches. Allosteric binding sites located near the extracellular (EC) face and IC face in different GPCRs have been documented. Allosteric sites near the orthosteric site in GPCRs often block the entry of other ligands. However, this would not be a problem for allosteric ligands that target the IC region. DETQ, an al ...

[1] = target: T1, AngII type 1 receptor (AT1R) (Homo sapiens, UniProt P30556); test: Saturation NanoBRET binding of BODIPY-AngII to Nluc-AT1R in live HEK293FT cells
T1 construct: host or cells: HEK293FT
T1 sequence (P30556 1-359): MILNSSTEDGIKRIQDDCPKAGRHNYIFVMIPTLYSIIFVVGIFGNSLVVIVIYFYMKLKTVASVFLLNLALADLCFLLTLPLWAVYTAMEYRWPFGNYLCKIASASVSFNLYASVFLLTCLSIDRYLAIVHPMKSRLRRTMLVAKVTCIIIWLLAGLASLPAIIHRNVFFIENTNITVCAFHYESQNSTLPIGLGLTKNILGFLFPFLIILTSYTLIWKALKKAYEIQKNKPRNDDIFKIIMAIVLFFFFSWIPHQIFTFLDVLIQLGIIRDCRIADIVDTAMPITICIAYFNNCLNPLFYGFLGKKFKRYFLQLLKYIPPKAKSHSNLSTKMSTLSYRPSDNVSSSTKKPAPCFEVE
Method: Figure 1 Saturation binding of BODIPY-angiotensin II (AngII) to AngII type 1 receptor (AT1R) using NanoBRET assay in live HEK293FT cells. HEK293FT cells transiently expressing Nluc-AT1R (NanoBRET donor) were first treated with 10 μM LVV-H7 or vehicle (A) or 1 μM olmesartan medoxomil or vehicle (B) for 20 min at 37 °C. […] Data are mean ± SEM of four (A) or three (B) independent experiments performed in duplicate.
(A) HEK293FT cells transiently expressing Nluc-AT1R (NanoBRET donor) were first treated with 1 μM olmesartan medoxomil or vehicle and then immediately treated with 0, 10, or 100 μM LVV-H7. […] Specific binding curves were generated by subtracting olmesartan medoxomil-treated wells from vehicle-treated wells for each concentration of LVV-H7.
(§1) The NanoLuc-AT1R coding plasmid (Promega, Madison, WI, USA) was used for its transient expression in HEK293FT cells as previously reported.
(§2) Human embryonic kidney (HEK) 293FT cells (Thermo Fisher Scientific) were cultured and maintained at 37 °C, 5% CO2 in complete medium (Dulbecco’s modified Eagle’s medium (DMEM) containing 0.3 mg/mL glutamine, 100 IU/mL penicillin, and 100 μg/mL streptomycin) supplemented with 10% fetal calf serum (FCS) (Bovogen Biologicals, Victoria, Australia) and 400 μg/mL Geneticin (Thermo Fisher Scientific). Transient transfections were carried out 24 h after seeding 600,000 cells/well of a 6-well plate. FuGENE 6 (Promega) transfection reagent was used according to the manufacturer’s instructions. Cells were harvested with 0.05% Trypsin-EDTA 24 h after transfection and seeded into poly-L-lysine (Sigma Aldrich) coated white 96-well plates (Greiner Bio-One, Frickenhausen, Germany) at 80,000 cells/well in phenol red-free DMEM containing 25 mM HEPES, 0.3 mg/mL glutamine, 100 IU/mL penicillin, and 100 μg/mL streptomycin supplemented with 5% FCS.
The NanoLuc substrate furimazine (Promega) was then added to a final concentration of 10 μM and light emission was measured at 37 °C using the filters 450 nm (80-nm bandpass) and >610 nm (longpass) on the LUMIstar or CLARIOstar multilabel plate reader (BMG Labtech (Australia), Mornington, VIC, Australia).
The NanoBRET ratios were determined by dividing the >610 nm (longpass) emission by 450 nm (80-nm bandpass) emission and subtracting the background ratio. Then, the percentage of NanoBRET signals were calculated as described in figure legends. The saturation and kinetic curves were fitted with the appropriate nonlinear regression equations using GraphPad Prism software (San Diego, CA, USA). Statistical analyses were performed with paired one-way ANOVA or paired t-tests as appropriate to determine statistical significance between the different conditions. **** p-value < 0.0001, *** p-value < 0.001, ** p-value < 0.01, * p-value < 0.05, and ns p-value > 0.05.

AT1R = details: HEK293 cells; Gαq/inositol phosphate pathway and ERK1/2 phosphorylation; cited from earlier work
Description: Hemorphins are endogenous hemoglobin-derived peptides implicated in numerous physiological and pathophysiological situations including spatial learning, inflammation, analgesia, and transient hypotension. The molecular targets of hemorphins comprise the cell-surface G protein-coupled receptor (GPCR) members such as the opioid receptors and also the membrane AngIV receptor [3, 8]. Moreover, hemorphins are also known for their inhibitory effects on the angiotensin-converting enzyme (ACE), a key enzyme in the renin–angiotensin system (RAS). ...

[2] = target: T1, AngII type 1 receptor (AT1R); test: Real-time NanoBRET kinetics of BODIPY-AngII binding to Nluc-AT1R in live HEK293FT cells; details: 10 μM LVV-H7, 30 min pre-incubation, 100 nM BODIPY-AngII
Method: as §1, §2
The NanoBRET ratios were determined by dividing the >610 nm (longpass) emission by 450 nm (80-nm bandpass) emission and subtracting the background ratio. Then, the percentage of NanoBRET signals were calculated as described in figure legends. […]

C[C@H]1c2cccc(C(C)(C)O)c2C[C@H](CO)N1C(=O)Cc1c(Cl)cccc1Cl [DETQ]
effect on potency of dopamine (dopamine 1 receptor): significantly enhanced the potency of dopamine

CCCc1nc(C(C)(C)O)c(C(=O)OCc2oc(=O)oc2C)n1Cc1ccc(-c2ccccc2-c2nnn[nH]2)cc1 [olmesartan medoxomil, reference compound]
displacement of BODIPY-AngII binding ([1]; 1 μM olmesartan medoxomil, 20 min at 37 °C before BODIPY-AngII 40 min, three independent experiments in duplicate): ~ 75%

LVVYPWTQRF [LVV-H7, LVV-hemorphin-7, decapeptide LVV-hemorphin-7 ([…]) (New England Peptide)]
modulation of AT1R activity and downstream signaling (AT1R): positive modulation of its activity and downstream signaling pathways in HEK293 cells
competition for binding with BODIPY-AngII ([1]; 10 μM LVV-H7, 20 min at 37 °C before BODIPY-AngII 40 min, four independent experiments in duplicate): did not compete for binding with BODIPY-AngII
effect on maximum binding (Bmax) of BODIPY-AngII ([1]; LVV-H7 0, 10, 100 μM, saturation binding, n = 6): without altering the maximum binding
decrease of AngII's kD ([1]; NanoBRET in HEK293FT cells, effect of LVV-H7): 2.6 fold
effect on binding of BODIPY-AngII ([1]; increasing LVV-H7 (0, 10, 100 μM), n = 6): significantly potentiated the binding of BODIPY-AngII
effect on maximal binding of BODIPY-AngII (kinetics) ([2]; n = 4, p < 0.05): significantly increased the maximal binding of BODIPY-AngII
effect on binding rate (T1/2) of BODIPY-AngII ([2]; n = 4, p > 0.05): no effect on the binding rate
